Source: the supplement of paper PMC10307832

How the values were obtained:
Test in all cases: relative viability (nuclei count vs DMSO), 5 days (fraction); higher = more cells survive
BEN = test system: BEN
In short: (§1)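 For relative viability, nuclei counts in treated wells were divided by those in vehicle wells. Lung cancer cell lines had been pin-tool dosed in 1536-well plates the day after seeding and cultured for 5 days, then fixed and stained in one step (final 0.05% Triton X-100, 1% formaldehyde, 1 ug/ml Hoechst) and imaged at 4×. Doses were one drug alone or a fixed anchor-drug dose plus five library-drug doses (not always all listed) in √10 steps, and values are duplicate-plate medians.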

CAL-12T = test system: CAL-12T
In short: as §1

NCI-H2228 = test system: NCI-H2228
In short: as §1

SK-LU-1 = test system: SK-LU-1
In short: as §1

201T = test system: 201T
In short: as §1

LCLC-97TM1 = test system: LCLC-97TM1
In short: as §1

NCI-H2405 = test system: NCI-H2405
In short: as §1

NCI-H727 = test system: NCI-H727
In short: as §1

NCI-H1793 = test system: NCI-H1793
In short: as §1

NCI-H1437 = test system: NCI-H1437
In short: as §1

NCI-H3122 = test system: NCI-H3122
In short: as §1

LXF-289 = test system: LXF-289
In short: as §1

NCI-H647 = test system: NCI-H647
In short: as §1

RERF-LC-KJ = test system: RERF-LC-KJ
In short: as §1

NCI-H2087 = test system: NCI-H2087
In short: as §1

NCI-H1792 = test system: NCI-H1792
In short: as §1

NCI-H1944 = test system: NCI-H1944
In short: as §1

NCI-H1650 = test system: NCI-H1650
In short: as §1

LCLC-103H = test system: LCLC-103H
In short: as §1

NCI-H1395 = test system: NCI-H1395
In short: as §1

HCC-827 = test system: HCC-827
In short: as §1

NCI-H322M = test system: NCI-H322M
In short: as §1

Question: With CC(=O)O[C@@]12CO[C@@H]1C[C@H](O)[C@@]1(C)C(=O)[C@H](O)C3=C(C)[C@@H](OC(=O)[C@H](O)[C@@H](NC(=O)OC(C)(C)C)c4ccccc4)C[C@@](O)([C@@H](OC(=O)c4ccccc4)[C@H]21)C3(C)C [Docetaxel] + CCNC(=O)c1noc(-c2cc(C(C)C)c(O)cc2O)c1-c1ccc(CN2CCOCC2)cc1 [Luminespib] (partner 0.01 µM) as the compound, how does the relative viability (BEN; first compound 0.0002 µM) read?
Answer: 0.0838

Question: What about the relative viability (BEN; first compound 0.000632 µM) of the same compound?
Answer: 0.377

Question: And the relative viability (BEN; first compound 0.002 µM)?
Answer: 0.373

Question: And the relative viability (BEN; first compound 0.006325 µM)?
Answer: 0.172

Question: What about the relative viability (BEN; first compound 0.02 µM) of the same compound?
Answer: 0.116

Question: What about the relative viability (CAL-12T; first compound 0.0002 µM) of the same compound?
Answer: 0.413

Question: What about the relative viability (CAL-12T; first compound 0.000632 µM) of the same compound?
Answer: 0.252

Question: And the relative viability (CAL-12T; first compound 0.002 µM)?
Answer: 0.199

Question: What about the relative viability (CAL-12T; first compound 0.006325 µM) of the same compound?
Answer: 0.168

Question: And the relative viability (CAL-12T; first compound 0.02 µM)?
Answer: 0.136

Question: What about the relative viability (NCI-H2228; first compound 0.0002 µM) of the same compound?
Answer: 0.146

Question: What about the relative viability (NCI-H2228; first compound 0.000632 µM) of the same compound?
Answer: 0.145

Question: And the relative viability (NCI-H2228; first compound 0.002 µM)?
Answer: 0.129

Question: And the relative viability (NCI-H2228; first compound 0.006325 µM)?
Answer: 0.194

Question: And the relative viability (NCI-H2228; first compound 0.02 µM)?
Answer: 0.19

Question: What about the relative viability (SK-LU-1; first compound 0.0002 µM) of the same compound?
Answer: 0.205

Question: And the relative viability (SK-LU-1; first compound 0.000632 µM)?
Answer: 0.218

Question: What about the relative viability (SK-LU-1; first compound 0.006325 µM) of the same compound?
Answer: 0.193

Question: And the relative viability (SK-LU-1; first compound 0.02 µM)?
Answer: 0.159

Question: And the relative viability (201T; first compound 0.0002 µM)?
Answer: 1.08

Question: And the relative viability (201T; first compound 0.000632 µM)?
Answer: 0.907

Question: What about the relative viability (201T; first compound 0.002 µM) of the same compound?
Answer: 0.8

Question: And the relative viability (201T; first compound 0.006325 µM)?
Answer: 0.485

Question: And the relative viability (201T; first compound 0.02 µM)?
Answer: 0.302

Question: And the relative viability (LCLC-97TM1; first compound 0.0002 µM)?
Answer: 0.71

Question: What about the relative viability (LCLC-97TM1; first compound 0.000632 µM) of the same compound?
Answer: 0.622

Question: What about the relative viability (LCLC-97TM1; first compound 0.002 µM) of the same compound?
Answer: 0.548

Question: What about the relative viability (LCLC-97TM1; first compound 0.006325 µM) of the same compound?
Answer: 0.167

Question: What about the relative viability (LCLC-97TM1; first compound 0.02 µM) of the same compound?
Answer: 0.106

Question: And the relative viability (NCI-H2405; first compound 0.0002 µM)?
Answer: 0.607

Question: What about the relative viability (NCI-H2405; first compound 0.000632 µM) of the same compound?
Answer: 0.603

Question: What about the relative viability (NCI-H2405; first compound 0.002 µM) of the same compound?
Answer: 0.486

Question: And the relative viability (NCI-H2405; first compound 0.006325 µM)?
Answer: 0.33

Question: What about the relative viability (NCI-H2405; first compound 0.02 µM) of the same compound?
Answer: 0.22

Question: And the relative viability (NCI-H727; first compound 0.0002 µM)?
Answer: 0.753

Question: And the relative viability (NCI-H727; first compound 0.000632 µM)?
Answer: 0.419

Question: And the relative viability (NCI-H727; first compound 0.002 µM)?
Answer: 0.351

Question: And the relative viability (NCI-H727; first compound 0.006325 µM)?
Answer: 0.353

Question: And the relative viability (NCI-H727; first compound 0.02 µM)?
Answer: 0.308

Question: And the relative viability (NCI-H1793; first compound 0.0002 µM)?
Answer: 0.174

Question: What about the relative viability (NCI-H1793; first compound 0.002 µM) of the same compound?
Answer: 0.238

Question: What about the relative viability (NCI-H1793; first compound 0.006325 µM) of the same compound?
Answer: 0.177

Question: And the relative viability (NCI-H1793; first compound 0.02 µM)?
Answer: 0.134

Question: What about the relative viability (NCI-H1437; first compound 0.0002 µM) of the same compound?
Answer: 1.07

Question: What about the relative viability (NCI-H1437; first compound 0.000632 µM) of the same compound?
Answer: 1.09

Question: What about the relative viability (NCI-H1437; first compound 0.002 µM) of the same compound?
Answer: 0.277

Question: And the relative viability (NCI-H1437; first compound 0.006325 µM)?
Answer: 0.234

Question: And the relative viability (NCI-H1437; first compound 0.02 µM)?
Answer: 0.167

Question: And the relative viability (NCI-H3122; first compound 0.0002 µM)?
Answer: 0.088

Question: And the relative viability (NCI-H3122; first compound 0.000632 µM)?
Answer: 0.101

Question: And the relative viability (NCI-H3122; first compound 0.002 µM)?
Answer: 0.104

Question: What about the relative viability (NCI-H3122; first compound 0.006325 µM) of the same compound?
Answer: 0.0883

Question: What about the relative viability (NCI-H3122; first compound 0.02 µM) of the same compound?
Answer: 0.115

Question: And the relative viability (LXF-289; first compound 0.0002 µM)?
Answer: 0.683

Question: And the relative viability (LXF-289; first compound 0.000632 µM)?
Answer: 0.694

Question: What about the relative viability (LXF-289; first compound 0.002 µM) of the same compound?
Answer: 0.138

Question: What about the relative viability (LXF-289; first compound 0.006325 µM) of the same compound?
Answer: 0.111

Question: What about the relative viability (LXF-289; first compound 0.02 µM) of the same compound?
Answer: 0.0768

Question: What about the relative viability (NCI-H647; first compound 0.0002 µM) of the same compound?
Answer: 0.112

Question: What about the relative viability (NCI-H647; first compound 0.000632 µM) of the same compound?
Answer: 0.126

Question: What about the relative viability (NCI-H647; first compound 0.002 µM) of the same compound?
Answer: 0.147

Question: And the relative viability (NCI-H647; first compound 0.006325 µM)?
Answer: 0.12

Question: What about the relative viability (NCI-H647; first compound 0.02 µM) of the same compound?
Answer: 0.0798

Question: What about the relative viability (RERF-LC-KJ; first compound 0.0002 µM) of the same compound?
Answer: 1.16

Question: And the relative viability (RERF-LC-KJ; first compound 0.000632 µM)?
Answer: 0.853

Question: And the relative viability (RERF-LC-KJ; first compound 0.002 µM)?
Answer: 0.353

Question: What about the relative viability (RERF-LC-KJ; first compound 0.02 µM) of the same compound?
Answer: 0.211

Question: What about the relative viability (NCI-H2087; first compound 0.0002 µM) of the same compound?
Answer: 0.166

Question: And the relative viability (NCI-H2087; first compound 0.000632 µM)?
Answer: 0.189

Question: And the relative viability (NCI-H2087; first compound 0.002 µM)?
Answer: 0.147

Question: What about the relative viability (NCI-H2087; first compound 0.006325 µM) of the same compound?
Answer: 0.168

Question: And the relative viability (NCI-H2087; first compound 0.02 µM)?
Answer: 0.124

Question: And the relative viability (NCI-H1792; first compound 0.0002 µM)?
Answer: 0.43

Question: And the relative viability (NCI-H1792; first compound 0.000632 µM)?
Answer: 0.374

Question: What about the relative viability (NCI-H1792; first compound 0.002 µM) of the same compound?
Answer: 0.382

Question: And the relative viability (NCI-H1792; first compound 0.006325 µM)?
Answer: 0.338

Question: What about the relative viability (NCI-H1792; first compound 0.02 µM) of the same compound?
Answer: 0.212

Question: What about the relative viability (NCI-H1944; first compound 0.0002 µM) of the same compound?
Answer: 0.724

Question: And the relative viability (NCI-H1944; first compound 0.000632 µM)?
Answer: 0.723

Question: What about the relative viability (NCI-H1944; first compound 0.002 µM) of the same compound?
Answer: 0.635

Question: And the relative viability (NCI-H1944; first compound 0.006325 µM)?
Answer: 0.249

Question: What about the relative viability (NCI-H1944; first compound 0.02 µM) of the same compound?
Answer: 0.114

Question: And the relative viability (NCI-H1650; first compound 0.0002 µM)?
Answer: 0.22

Question: What about the relative viability (NCI-H1650; first compound 0.000632 µM) of the same compound?
Answer: 0.212

Question: And the relative viability (NCI-H1650; first compound 0.006325 µM)?
Answer: 0.199

Question: What about the relative viability (NCI-H1650; first compound 0.02 µM) of the same compound?
Answer: 0.193

Question: What about the relative viability (LCLC-103H; first compound 0.0002 µM) of the same compound?
Answer: 0.885

Question: And the relative viability (LCLC-103H; first compound 0.000632 µM)?
Answer: 0.835

Question: What about the relative viability (LCLC-103H; first compound 0.002 µM) of the same compound?
Answer: 0.498

Question: And the relative viability (LCLC-103H; first compound 0.006325 µM)?
Answer: 0.443

Question: And the relative viability (LCLC-103H; first compound 0.02 µM)?
Answer: 0.218

Question: What about the relative viability (NCI-H1395; first compound 0.0002 µM) of the same compound?
Answer: 0.699

Question: What about the relative viability (NCI-H1395; first compound 0.000632 µM) of the same compound?
Answer: 0.771

Question: And the relative viability (NCI-H1395; first compound 0.002 µM)?
Answer: 0.496

Question: What about the relative viability (NCI-H1395; first compound 0.006325 µM) of the same compound?
Answer: 0.391

Question: And the relative viability (NCI-H1395; first compound 0.02 µM)?
Answer: 0.286

Question: And the relative viability (HCC-827; first compound 0.0002 µM)?
Answer: 0.588

Question: And the relative viability (HCC-827; first compound 0.000632 µM)?
Answer: 0.67

Question: And the relative viability (HCC-827; first compound 0.002 µM)?
Answer: 0.244

Question: What about the relative viability (HCC-827; first compound 0.006325 µM) of the same compound?
Answer: 0.159

Question: What about the relative viability (HCC-827; first compound 0.02 µM) of the same compound?
Answer: 0.142

Question: And the relative viability (NCI-H322M; first compound 0.0002 µM)?
Answer: 0.836

Question: What about the relative viability (NCI-H322M; first compound 0.000632 µM) of the same compound?
Answer: 0.891

Question: What about the relative viability (NCI-H322M; first compound 0.002 µM) of the same compound?
Answer: 0.788

Question: What about the relative viability (NCI-H322M; first compound 0.006325 µM) of the same compound?
Answer: 0.557

Question: And the relative viability (NCI-H322M; first compound 0.02 µM)?
Answer: 0.347
